# Assay results taken from ChEMBL document CHEMBL1641410, “In silico discovery of acylated flavonol monorhamnosides from Eriobotrya japonica as natural, small-molecular weight inhibitors of XIAP BIR3” (Bioorg Med Chem, 2011).
# Tests used:
# [1] = Chemical stability of the compound after 15 hrs; assay type: physicochemical
# [2] = biological target: E3 ubiquitin-protein ligase XIAP (Homo sapiens, UniProt P98170); experiment: Displacement of fluorescent SM5F peptide from XIAP linker BIR3 domain after 3 hrs by fluorescence polarization assay
# Sequence of E3 ubiquitin-protein ligase XIAP (P98170 whole entry, the tested form may be a part): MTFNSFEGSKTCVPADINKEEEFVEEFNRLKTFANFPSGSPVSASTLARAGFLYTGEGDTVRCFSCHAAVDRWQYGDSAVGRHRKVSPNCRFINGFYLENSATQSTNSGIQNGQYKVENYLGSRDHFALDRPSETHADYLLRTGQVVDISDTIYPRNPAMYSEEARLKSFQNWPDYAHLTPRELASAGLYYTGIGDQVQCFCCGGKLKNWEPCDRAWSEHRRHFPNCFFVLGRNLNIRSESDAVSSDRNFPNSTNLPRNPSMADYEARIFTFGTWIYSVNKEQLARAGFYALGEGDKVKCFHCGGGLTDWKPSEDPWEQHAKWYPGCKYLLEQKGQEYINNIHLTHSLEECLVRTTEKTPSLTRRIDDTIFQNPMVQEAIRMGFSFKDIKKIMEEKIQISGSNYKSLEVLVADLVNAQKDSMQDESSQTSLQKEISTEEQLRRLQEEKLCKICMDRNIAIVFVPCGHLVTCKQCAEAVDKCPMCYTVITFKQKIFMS
Stability [1],IC50 [2] [µM],Structure (SMILES)
Stable,> 10.4,C[C@@H]1O[C@@H](Oc2c(-c3ccc(O)cc3)oc3cc(O)cc(O)c3c2=O)[C@H](OC(=O)/C=C/c2ccc(O)cc2)[C@H](O)[C@H]1OC(=O)/C=C/c1ccc(O)cc1
–,> 100,O=c1c(O)c(-c2ccc(O)cc2)oc2cc(O)cc(O)c12 [KAEMPFEROL]
